Assay results taken from US5451522A, “Genes encoding and method of expressing an enzyme: phthalyl amidase” (priority 1994, dated 1995).
One block for each molecule: values may come before it.

Experiments:
phthalyl amidase [1] = biological target: T1, phthalyl amidase (Xanthobacter agilis, UniProt P0C2Y0); experiment: Substrate specificity: chemical structure requirements for enzyme activity; format: biochemical; settings: 2.5 μmol compound, 0.3 units enzyme, 50 mM phosphate pH 8.0, 30° C.
T1 construct: 42-aa signal peptide removed
Protocol: (§1) The activity of phthalyl amidase against 25 compounds was determined. The compounds were divided into beta-lactams (Table 9), phthalyl amides (Table 10), and aromatic ring substituted amides (Table 11). Each reaction mixture (1 ml total volume) contained 2.5 μmol of compound and 0.3 units of enzyme (based on the chromogenic substrate) of the preparative scale purified enzyme, in 50 mM phosphate buffer, pH 8.0. The reactions were conducted at 30° C. Samples of the reaction mixture were taken at various times, and methanol (equal volume) was added to stop the reaction. The samples were examined by HPLC to determine the extent of substrate hydrolysis. The amount of compound hydrolyzed was calculated from a standard curve of the test compound. All substrates were stable in buffer at 30° C. and pH 8.0 in the absence of enzyme for 24 hours.

phthalyl amidase [2] = biological target: T1, phthalyl amidase; experiment: Kinetic parameters for phthalyl amidase; format: biochemical; settings: 50 mM potassium phosphate buffer, pH 8.0, 30° C.
Protocol: (§2) The kinetic parameters of the enzyme were determined for several representative substrates. Compounds II, XVII, and XVIII were tested using 0.9 μg/ml of enzyme. Compounds III and XI were tested using 5.14 μg/ml of enzyme. Substrate concentrations were between 0 and 25 mM and reaction time was between 2 and 20 minutes, depending on the substrate used. […] Km is the Michaelis constant for enzyme kinetics, Vmax is the maximal rate of reaction calculated by the Michaelis-Menten equation, and Kcat is the catalytic constant for an enzyme reaction.

phthalyl amidase [3] = biological target: T1, phthalyl amidase; experiment: Chiral and additional substrate selectivity of phthalyl amidase; format: biochemical; settings: Table 13; III = 100; 0.009 mg (0.6 units) enzyme, 2.5 μmol substrate, buffer A, 30° C.
Protocol: Several additional substrates were tested in a total volume of 1 ml. […] Reactions were stopped by the addition of methanol, and phthalic acid formation was monitored by HPLC.

phthalyl amidase [4] = biological target: T1, phthalyl amidase; experiment: Preparative scale hydrolysis to carbacephem nucleus; format: biochemical
Protocol: (§3) Thus, either compound XXXIII or III can be used to prepare the carbacephem nucleus (XXXIV). Substrate (4 grams) was added to 20 ml of deionized water and the pH of the solution was adjusted to 8.0 with concentrated ammonium hydroxide. Phthalyl amidase, 80 units as determined using the chromogenic substrate (II), was added to start the reaction. Temperature was maintained at 30° C. and the pH maintained at 8.0 by adding 2N ammonium hydroxide. […] The pH of the reaction was lowered to 5.0 thereby precipitating the carbacephem nucleus. Isolated yields of the nucleus were between 65% and 77%. [drawing 26]

[5] = Stability of substrates in buffer without enzyme; format: physicochemical; settings: buffer at pH 8.0
Protocol: as §1
as §3, with “Isolated yields of the nucleus were between 65% and 77%. [drawing 26]” left out

[6] = substrate: CCCCCCC(C(=O)O)n1cnc(NC(=O)c2c(F)cccc2C(=O)O)c1; experiment: Kinetic parameters for phthalyl amidase; format: biochemical, Xanthobacter agilis; settings: other: 32° C., pH 8.2; II, XVII, XVIII with 0.9 μg/ml enzyme, III and XI with 5.14 μg/ml; pH 8.2; 32.0 °C
Protocol: as §2

[7] = substrate: CCCCCCC(C(=O)O)n1cnc(NC(=O)c2ccccc2C(=O)O)c1; experiment: Kinetic parameters for phthalyl amidase; format: biochemical, Xanthobacter agilis; settings: other: 32° C., pH 8.2; II, XVII, XVIII with 0.9 μg/ml enzyme, III and XI with 5.14 μg/ml; pH 8.2; 32.0 °C
Protocol: as §2

[8] = substrate: O=C(O)C1=C(Cl)CCC2C(NC(=O)c3ccccc3C(=O)O)C(=O)N12; experiment: Kinetic parameters for phthalyl amidase; format: biochemical, Xanthobacter agilis
Protocol: as §2

[9] = substrate: O=C(O)CNC(=O)c1ccccc1C(=O)O; experiment: Kinetic parameters for phthalyl amidase; format: biochemical, Xanthobacter agilis; settings: other: 32° C., pH 8.2; II, XVII, XVIII with 0.9 μg/ml enzyme, III and XI with 5.14 μg/ml; pH 8.2; 32.0 °C
Protocol: as §2

[10] = substrate: O=C(O)c1ccccc1C(=O)Nc1ccc([N+](=O)[O-])c(C(=O)O)c1; experiment: Kinetic parameters for phthalyl amidase; format: biochemical, Xanthobacter agilis; settings: other: 32° C., pH 8.2; II, XVII, XVIII with 0.9 μg/ml enzyme, III and XI with 5.14 μg/ml; pH 8.2; 32.0 °C
Protocol: as §2

- Relative Activity (phthalyl amidase [1]; Table 9 beta-lactams, III = 100): 100
- Relative Activity (phthalyl amidase [1]; Table 10 phthalyl amides, III = 100.0): 100.0
- Vmax (phthalyl amidase [2]): 7.6 µmol/min/mg
- Relative Activity (phthalyl amidase [3]): 100
- hydrolyzed (HPLC) (phthalyl amidase [4]; phthalyl amidase, […], pH 8): 90.0%
Molecule: O=C(O)C1=C(Cl)CCC2C(NC(=O)c3ccccc3C(=O)O)C(=O)N12 (stereo not shown) [III, 7-phthalamido-3-chloro-4-carboxy-1-carba-dethioceph-3-em]

Molecule: O=C(O)C1=C(Cl)CCC2C(N3C(=O)c4ccccc4C3=O)C(=O)N12 (stereo not shown) [XXXIII]
- hydrolyzed (HPLC) (phthalyl amidase [4]; 4 grams substrate, 80 units enzyme, pH 8.0, 30° C., after 510 minutes): 98%
- hydrolysis of phthalimido to phthalamido form in buffer (in words) [5]: readily hydrolyzes

B1: phthalyl amidase (Xanthobacter agilis) (protein)
chain: QAPSVHQHVAFTEEIGDLPDGSSYMIRVPENWNGVLIRDLDLVSGTSNSNAARYETMLKEGFAVAGTARHPLRQWQYDPAHEIENLNHVLDTFEENYGSPERVIQYGCSGGAHVSLAVAEDFSDRVDGSVALAAHTPVWIMNSFLDGWFSLQSLIGEYYVEAGHGPLSDLAITKLPNDGSSNSSGHGMEGDLPAAWRNAFTAANATPEGRARMALAFALGQWSPWLADNTPQPDLDDPEAIADSVYESAMRLAGSPGGEARIMFENAARGQQLSWNDDIDYADFWENSNPAMKSAVQELYDTAGLDLQSDIETVNSQPRIEASQYALDYWNTPGRNVIGDPEVPVLRLHMIGDYQIPYSLVQGYSDLISENNNDDLYRTAFVQSTGHCNFTAAESSAAIEVMMQRLDTGEWPSTEPDDLNAIAEASNTGTEARFMALDGWEIPEYNRTWKPE
notes: 42-aa signal peptide removed
- Km [6]: 170 µM
- Km [7]: 90 µM
- Km ([8]; other: 50 mM potassium phosphate buffer, pH 8.0, 30° C., pH 8.0, 30.0 °C): 900 µM
- Km ([8]; other: 32° C., pH 8.2, II, XVII, XVIII with 0.9 μg/ml enzyme, III and XI with 5.14 μg/ml, pH 8.2, 32.0 °C): 900 µM
- Km [9]: 140 µM
- Km [10]: 50 µM
